What was measured:
[1] = tested on: Serum induced (hypertrophied) Myocytes proteins; test: Solid phase screening of small molecule biaryl Library 7 with labeled myocyte proteins; type: binding, neonatal Wistar rats
[2] = tested on: PE-induced myocyte protein; test: Solid phase screening of Library 6 with unlabeled myocyte proteins; silver staining, on-bead tryptic digest; type: binding, neonatal Wistar rats; settings: PE-Treated Myocytes
Protocol: (§1) Myocytes were prepared from 1 to 5 day old neonatal Wistar rats (University of Copenhagen) according to literature procedure described in Busk et al., 2002, Cardiovasc. Res., 56: 64-75 and plated into eight P10 culture plates at 6 million cells/plate.
Isolated proteins that bound to specific ligands were identified using peptide mass fingerprinting. Mass spectra were recorded on a Bruker Reflex m MALDI time-of-flight mass spectrometer (Bruker-Daltonics, Bremen, Germany) operated in the positive reflectron mode using delayed extraction. Measurements were performed using the following parameters: Power 83-84 V; lens 7.300. The sum of 200-300 shots was used for each spectrum.
The spectra were calibrated using bradykinin peptide. In some cases, internal mass calibration was performed using a porcine trypsin autolysis product Peptide masses were searched against peptide mass maps in the National Center for Biotechnology Information (NCBI) database using the following search engines found on the world wide web (www.) for each of: • MS-FIT (prospector.ucsf.edu/ucsfhtml/msfit.htm), • Profound (129.85.19.192/profound_biniWebProFound.exe), and • MASCOT (matrixscience.com).
A search was performed using the NCBI bacterial (E. coli) database and the mammalian databases for the isolated proteins from the E. coli and myocyte samples, respectively, and the Swiss Prot mammalian databases and the Swiss Prot viral databases were searched to identify the porcine macrophage proteins and proteins, respectively. A molecular mass range was estimated from 0-250 K Da, allowing a mass accuracy that varied from 0.1 Da (some cases 0.3 Da) for each peptide mass. A large pI range from 0-14 or 0-12 was considered for each search. If no proteins matched, the mass window was extended. Partial enzyme cleavages allowing for two missed cleavage sites and modification of cysteine by alkylation were considered in the search approaches. A protein was considered identified if the matched peptides covered at least 30% of the complete sequence. A match of less than 30% was considered in some cases, if prominent peaks were obtained. Usually, four or more peptides were used for identification. In some instances, hypothetical proteins or gene products, such as biochemical material, either RNA or protein, calculated from the expected expression of a gene and to which a function may be assigned based on sequence homology, were identified.
Protein was extracted from myocytes prepared as described above for Example 9, using a new procedure (to preserve the activity of metalloproteases) modified from existing protocols, primarily: Amott, et al., 1998, Anal. Biochem. 258: 1-18. The media was removed from plates and cells were washed with ice cold phosphate buffer (5 ml, 10 mM, pH 7.5, supplemented with 0.15 M NaCl,) to remove traces of media components. The adhered cells were treated for 10 minutes with ice cold phosphate buffer (2 mL, 10 mM, pH 7.5, augmented with 0.15 M NaCl, […] E-64, 10 μg/mL Leupeptin, and 10 μg/mL Pepstatin A). The cells were scraped off the plates and then lysed (on ice) in a sonicator (2×) using 10 seconds off/110 seconds on cycles.
(§2) The resulting suspension was augmented with CHAPS (1% w/v), KCl (50 mM), NaCl (0.5 M), ZnCl2 (0.1 mM), DTT (5 mM), and urea (2 M). After 10-15 minutes on ice, the solution was centrifuged for 10 minutes at 15,000 rpm at 4° C. The supernatant was removed and protein content quantified using the NanoOrange Protein test (Molecular Probes, Eugene, Oreg.): Total protein recovered: 195 μg for PE-induced cells and 200 μg for basal cells.
The protein solutions were dialyzed extensively against 20 mM MES (2-[N-Morpholino]ethanesulfonic acid) buffer pH 6.0, supplemented with 0.15 M NaCl and 1 mM ZnCl2 to remove excess detergent and urea. […]

Phosphomannose isomerase = target: T1, Phosphomannose isomerase (Candida albicans, UniProt P34948); settings: in Candida; Wells et al, 1996; cited from earlier work
T1 sequence (P34948 1-441): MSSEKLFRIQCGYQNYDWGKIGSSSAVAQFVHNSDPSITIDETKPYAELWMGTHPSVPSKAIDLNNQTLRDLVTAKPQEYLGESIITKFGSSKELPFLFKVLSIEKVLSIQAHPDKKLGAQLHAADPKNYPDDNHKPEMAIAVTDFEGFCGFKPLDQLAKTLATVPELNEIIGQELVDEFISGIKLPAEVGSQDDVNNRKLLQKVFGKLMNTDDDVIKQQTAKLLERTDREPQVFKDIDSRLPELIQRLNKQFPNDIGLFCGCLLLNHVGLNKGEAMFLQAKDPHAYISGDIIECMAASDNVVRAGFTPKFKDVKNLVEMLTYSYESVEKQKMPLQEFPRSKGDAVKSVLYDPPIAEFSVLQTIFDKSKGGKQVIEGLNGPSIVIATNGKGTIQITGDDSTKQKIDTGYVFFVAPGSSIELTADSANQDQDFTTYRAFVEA

[3] = target: isoleucine tRNA synthetase (Escherichia coli, UniProt P00956); settings: Merck Manual; cited from earlier work
Sequence of isoleucine tRNA synthetase (P00956 whole entry): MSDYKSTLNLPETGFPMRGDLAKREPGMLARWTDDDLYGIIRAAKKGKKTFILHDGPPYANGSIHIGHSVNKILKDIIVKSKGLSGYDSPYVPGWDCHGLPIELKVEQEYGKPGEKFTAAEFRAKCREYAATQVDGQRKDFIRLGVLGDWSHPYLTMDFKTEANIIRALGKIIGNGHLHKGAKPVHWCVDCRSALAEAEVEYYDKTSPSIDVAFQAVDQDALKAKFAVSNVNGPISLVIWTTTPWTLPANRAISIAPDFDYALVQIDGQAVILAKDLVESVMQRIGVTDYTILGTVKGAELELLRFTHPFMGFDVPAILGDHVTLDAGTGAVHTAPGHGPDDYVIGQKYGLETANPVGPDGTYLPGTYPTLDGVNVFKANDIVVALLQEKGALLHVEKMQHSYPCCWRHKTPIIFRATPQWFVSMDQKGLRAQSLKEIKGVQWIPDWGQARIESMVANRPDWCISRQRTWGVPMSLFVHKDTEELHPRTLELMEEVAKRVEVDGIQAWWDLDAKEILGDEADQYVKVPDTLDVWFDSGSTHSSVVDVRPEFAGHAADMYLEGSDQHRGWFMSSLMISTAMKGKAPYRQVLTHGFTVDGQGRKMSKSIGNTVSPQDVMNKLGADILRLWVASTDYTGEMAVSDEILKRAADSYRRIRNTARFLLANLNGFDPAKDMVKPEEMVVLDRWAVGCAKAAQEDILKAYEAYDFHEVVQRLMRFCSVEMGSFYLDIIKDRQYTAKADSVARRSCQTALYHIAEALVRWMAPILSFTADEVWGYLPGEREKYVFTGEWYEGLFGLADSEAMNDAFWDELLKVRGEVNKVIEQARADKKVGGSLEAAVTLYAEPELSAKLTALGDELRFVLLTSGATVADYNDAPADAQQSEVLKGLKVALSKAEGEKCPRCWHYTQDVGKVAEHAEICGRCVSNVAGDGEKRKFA

basal myocyte protein = test: Solid phase screening of Library 5 with labeled myocyte protein; type: binding, neonatal Wistar rats; settings: Normal Myocytes
Protocol: as §1
Protein was extracted from myocytes prepared as described above for Example 9, using a new procedure modified from existing protocols, primarily: Arrott, et al., 1998, Anal Biochem. 258: 1-18. The media was removed from plates and adhered cells were treated for 10 minutes with ice cold phosphate buffer (0.25 mL, 10 mM, pH 7.5, augmented with 0.15 M NaCl 60 mM Benzamidine HCl, 5 mM EDTA, 10 μg/n E-64, 10 μg/mL Leu-peptin, 10 μg/mL Pepstatin A, and 1 mM PMSF). The cells were scraped off the plates and then lysed (on ice) in a sonicator (2×) using 10 seconds off/10 seconds on cycles.
as §2, with “with CHAPS, DTT, and urea to a final concentration of” for “with”, “w/v),” for “w/v), KCl (50 mM), NaCl (0.5 M), ZnCl2 (0.1 mM),”, “(8” for “(2”, “70.5” for “195”, “PE-treated” for “PE-induced”, “60” for “200”
Fluorescent dye Oregon Green 514 (OR) (Molecular Probes) was used to label the healthy/basal cells while Rhodamine Red (RR) (Molecular Probes) was used to label the PE-treated cells. The labeling procedures were carried out according to the manufacturer's protocol. […]
(§3) A typical analysis employed 100-300 laser shots. […] The possible identity of the ligand was determined (Narrowed down) by comparing the recorded mass of the ligand with the masses of all possible compounds formed in the library. […]
(§4) Isolated proteins that bound to specific ligands were identified using peptide mass fingerprinting. Mass spectra were recorded on a Bruker Reflex m MALDI time-of-flight mass spectrometer (Bruker-Daltonics, Bremen, Germany) operated in the positive reflectron mode using delayed extraction. […]

[4] = tested on: normal porcine macrophage proteins; test: Solid phase screening of Library 4 with labeled porcine viral and macrophage proteins; type: binding; settings: Normal Macrophages
Description: Alternatively, the fluorescent ligand library beads containing bound protein obtained as described in Examples 47, 48, 49 and 51 were sorted using a COPAS (250) NF Bead Sorter (Union Biometrica, Somerville, Mass.) equipped with a dual detector. Both the cyanine dyes used in the labeling procedure, namely Cy 2 (emission wavelength—510 nm) and Cy 3 (emission wavelength—570 nm) were simultaneously excited at […] The bead selection window was then set-up such that all beads containing significant green fluorescence and no red flourescence were isolated. The unselected beads were then resorted to obtain beads containing red fluorescence (proteins from basal cells). […]
as §3, §4

Myocytes = test: Proliferation of myocytes with phenylephrine (in vitro model of hypertrophy); type: cell-based, neonatal Wistar rats; settings: 10 μM phenylephrine (PE); cells grown for two more days

SMILES: O=C(O)CNC(=O)c1ccc(-c2ccco2)o1
- Identified Protein(s) [1]: Serine-threonine kinase (gi 474842); Hemopexin precur- sor (Beta-1B-glycoprotein) (P02790); 116 kDa U5 small nuclear ribonucleoprotein component (O08810).

SMILES: CCOC(=O)C(CCc1ccccc1)NC(CCCCN)C(=O)N1CCC[C@H]1C(=O)O (stereo partly shown) [drawing 175]
- Identified Protein(s) [2]: Angiotensin converting enzyme (P22967); U2 nuclear ribonucleoprotein auxiliary factor (gi 2842676).

SMILES: Nc1ccc(S(=O)(=O)Nc2ncccn2)cc1 [sulfadiazene]
- inhibition of phosphomannose isomerase (Phosphomannose isomerase): inhibited

SMILES: C/C(=C\C(=O)OCCCCCCCCC(=O)O)C[C@@H]1OC[C@H](C[C@@H]2O[C@H]2[C@@H](C)[C@H](C)O)[C@@H](O)[C@H]1O [Mupirocin]
- inhibition of isoleucine tRNA synthetase [3]: inhibits the enzyme isoleucine tRNA synthetase

SMILES: CC(CCc1ccccc1)N1C[C@@H](CN2Cc3ccccc3CC2C(=O)O)N2C(=O)c3ccccc3[C@H]12 (stereo partly shown) [HY5]
- Identified Protein(s) (basal myocyte protein): Myosin Va (Myosin 5A, dilute myosin heavy chain, non muscle (Q9Y411).

SMILES: COc1ccc(Br)c(OC)c1C(=O)NC1(C(=O)O)CCCCC1
- Identified Protein(s) [1]: Translin-associated protein X (Q99598); Hypothetical Protein ORF-1137 (P11260); Integrin alpha-1 (Laminin and collagen receptor VLA-1,CD49a) (P56199_.

SMILES: CCCCCCNC(=O)C(CCCCN)NC(C(C)C)C(C)C (stereo not shown) [drawing 179]
- Identified Protein(s) [2]: Heat Shock protein 70 kDa protein 12A (Q8KOU4).

SMILES: CC(C)C(NC(CCCCN)C(=O)NCC(=O)O)C(C)C (stereo not shown)
- Identified Protein(s) [2]: Glycogen ssynthase kinase-3 beta factor (AQ9WV60).

SMILES: O=C(O)c1ccc(CN2C[C@@H](CN(C(=O)c3ccccc3)C3(C(=O)O)CCCC3)N3C(=O)c4ccccc4[C@H]23)cc1 [HY3]
- Identified Protein(s) (basal myocyte protein): NADH-ubiquinone oxidoreductase B14 subunit (Q9CQZ5).

SMILES: O=C1NCCC[C@@H](C(=O)N[C@@H](CCc2ccccc2)C(=O)O)N1 [HY2]
- Identified Protein(s) [4]: Protein kinase byr2 (Protein kinase ste8) (MAP kinase) (P28829); Similar to protein kinase 2 (Testicular) (Q885R6); Thiamine-triphosphatase (Q8CgV7).

SMILES: O=C1c2ccccc2[C@@H]2N(Cc3ccc(O)cc3)C[C@@H](CN(C(=O)CCc3ccccc3)C3(C(=O)O)CCCC3)N12 [HY4]
- Identified Protein(s) (basal myocyte protein): NADH-ubiquinone oxidoreductase B14 subunit (Q9CQZ5).

SMILES: C[C@H](NC(=O)[C@@H]1CCCCNC(=O)N1)C(=O)O [HY1]
- Identified Protein(s) [4]: Protein kinase C binding protein 1 also contains a zinc finger domain with protein 8) (Q9U1U4); Guanine nucle- otide-binding protein G(S), alpha subunit (Adenylate cy- clase-stimulating G alpha protein) (P048949).

SMILES: CNC[C@H](O)c1cccc(O)c1 [PE, phenylephrine]
- cell size at time of harvest (Myocytes): significantly enlarged

Source: US20060257875A1, “Affinity screening using "one-bead-one-compound" libraries” (Carlsberg A/S, priority 2003, published 2006)
